ChEMBL document CHEMBL5316358, “Structure-Activity Relationships of Ligand Binding to Oxysterol-Binding Protein (OSBP) and OSBP-Related Protein 4” (J Med Chem, 2023)
pKd, pKi: −log10 of the molar value.

Legend:
[1] = molecular target: T1, Oxysterol-binding protein 2 (Homo sapiens, UniProt Q969R2); test: Displacement of [3H]-25-OHC from human ORP4 overexpressed in HEK293T cell lysate assessed as inhibition constant by competitive binding assay; format: subcellular
T1 sequence (Q969R2 whole entry): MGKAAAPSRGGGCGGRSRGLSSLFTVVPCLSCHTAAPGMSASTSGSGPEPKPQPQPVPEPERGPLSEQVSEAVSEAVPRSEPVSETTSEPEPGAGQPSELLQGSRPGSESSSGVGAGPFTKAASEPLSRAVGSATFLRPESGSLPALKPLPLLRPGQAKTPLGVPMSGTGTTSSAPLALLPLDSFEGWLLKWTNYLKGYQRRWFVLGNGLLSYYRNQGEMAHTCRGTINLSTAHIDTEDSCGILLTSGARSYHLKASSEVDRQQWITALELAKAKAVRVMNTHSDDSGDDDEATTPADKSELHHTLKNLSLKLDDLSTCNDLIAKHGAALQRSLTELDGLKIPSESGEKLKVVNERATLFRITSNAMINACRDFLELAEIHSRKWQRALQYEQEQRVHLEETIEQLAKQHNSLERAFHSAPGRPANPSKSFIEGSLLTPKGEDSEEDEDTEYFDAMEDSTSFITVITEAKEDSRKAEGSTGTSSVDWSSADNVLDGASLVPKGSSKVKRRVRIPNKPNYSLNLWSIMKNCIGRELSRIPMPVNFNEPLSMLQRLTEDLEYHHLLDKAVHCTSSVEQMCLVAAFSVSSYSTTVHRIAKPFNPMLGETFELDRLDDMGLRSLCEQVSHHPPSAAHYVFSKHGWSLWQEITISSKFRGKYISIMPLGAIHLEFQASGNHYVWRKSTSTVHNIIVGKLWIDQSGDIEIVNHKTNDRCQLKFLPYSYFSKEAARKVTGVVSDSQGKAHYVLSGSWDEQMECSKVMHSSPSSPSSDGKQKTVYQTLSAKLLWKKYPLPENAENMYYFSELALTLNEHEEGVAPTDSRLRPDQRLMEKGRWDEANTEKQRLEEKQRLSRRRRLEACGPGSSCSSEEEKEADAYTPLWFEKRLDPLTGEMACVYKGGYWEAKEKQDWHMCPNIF

[2] = molecular target: T2, Oxysterol-binding protein 1 (Homo sapiens, UniProt P22059); test: Binding affinity to human OSBP
T2 sequence (P22059 whole entry): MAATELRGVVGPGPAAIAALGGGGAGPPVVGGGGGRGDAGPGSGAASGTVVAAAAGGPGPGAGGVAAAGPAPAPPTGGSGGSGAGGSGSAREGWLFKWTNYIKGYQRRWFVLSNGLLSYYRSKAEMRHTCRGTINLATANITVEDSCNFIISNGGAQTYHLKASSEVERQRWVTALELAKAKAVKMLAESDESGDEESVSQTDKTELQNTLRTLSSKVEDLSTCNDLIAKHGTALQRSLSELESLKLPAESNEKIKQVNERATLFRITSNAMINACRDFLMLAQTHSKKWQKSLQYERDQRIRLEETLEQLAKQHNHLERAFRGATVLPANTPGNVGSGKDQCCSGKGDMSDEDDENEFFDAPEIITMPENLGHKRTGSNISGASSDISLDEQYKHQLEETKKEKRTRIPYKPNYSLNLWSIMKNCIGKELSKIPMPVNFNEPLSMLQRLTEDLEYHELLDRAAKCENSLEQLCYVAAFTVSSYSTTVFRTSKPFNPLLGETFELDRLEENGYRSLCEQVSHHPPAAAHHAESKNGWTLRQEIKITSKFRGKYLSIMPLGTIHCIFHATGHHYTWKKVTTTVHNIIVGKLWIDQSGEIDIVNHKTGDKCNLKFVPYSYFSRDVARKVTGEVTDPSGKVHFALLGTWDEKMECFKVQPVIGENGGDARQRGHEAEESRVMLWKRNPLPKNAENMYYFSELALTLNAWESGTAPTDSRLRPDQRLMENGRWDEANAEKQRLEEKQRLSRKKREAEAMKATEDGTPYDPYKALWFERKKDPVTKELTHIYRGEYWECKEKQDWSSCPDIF

[3] = molecular target: T2, Oxysterol-binding protein 1; test: Displacement of [3H]-25-OHC from human OSBP overexpressed in HEK293T cell lysate assessed as inhibition constant by competitive binding assay
[4] = molecular target: T2, Oxysterol-binding protein 1; test: Displacement of [3H]-25-OHC from human OSBP overexpressed in HEK293T cell lysate assessed as inhibition constant; format: subcellular
[5] = molecular target: T1, Oxysterol-binding protein 2; test: Displacement of [3H]-25-OHC from human ORP4 overexpressed in HEK293T cell lysate assessed as inhibition constant; format: subcellular

SMILES	pKi [1]	pKi [3]	also measured
CC(C)CC[C@H](O)[C@@H](C)[C@H]1CC[C@H]2[C@@H]3CC=C4C[C@@H](O)CC[C@]4(C)[C@H]3CC[C@]12C	< 5.52	–	–
C[C@H](CCCC(C)(C)O)[C@H]1CC[C@H]2[C@@H]3CC=C4C[C@@H](O)CC[C@]4(C)[C@H]3CC[C@]12C	–	–	pKd [2]: 7.66
CC(C)[C@@H](O)CC[C@@H](C)[C@H]1CC[C@H]2[C@@H]3CC=C4C[C@@H](O)CC[C@]4(C)[C@H]3CC[C@]12C	6.40	–	–
CC(C)CCC[C@](C)(O)[C@H]1CC[C@H]2[C@@H]3CC=C4C[C@@H](O)CC[C@]4(C)[C@H]3CC[C@@]21C	6.49	6.89	–
C[C@@H](CO)CCC[C@@H](C)[C@H]1CC[C@H]2[C@@H]3CC=C4C[C@@H](O)CC[C@]4(C)[C@H]3CC[C@]12C	< 6.00	–	–
CCN(CC)CCO[C@H]1CC[C@@]2(C)C(=CC[C@@H]3[C@@H]2CC[C@]2(C)C(=O)CC[C@@H]32)C1	< 4.30	–	–
COc1ccc(C(=O)O[C@H]2[C@H](O[C@@H]3[C@@H](OC(C)=O)[C@H](O[C@H]4C[C@H]5[C@@H]6CC=C7C[C@@H](O)CC[C@]7(C)[C@H]6CC[C@]5(C)[C@@]4(O)[C@H](C)C(=O)CCC(C)C)OC[C@@H]3O)OC[C@@H](O)[C@@H]2O)cc1	–	–	pKi [4]: 7.80; pKi [5]: 7.15
C[C@H](O)[C@H]1CC[C@H]2[C@@H]3CC=C4C[C@@H](O)CC[C@]4(C)[C@H]3CC[C@]12C	< 4.00	–	–
C[C@H](CCCC(C)(C)O)[C@H]1CC[C@H]2[C@@H]3[C@H](O)C=C4C[C@@H](O)CC[C@]4(C)[C@H]3CC[C@]12C	7.04	7.11	–
C[C@H](CO)CCC[C@@H](C)[C@H]1CC[C@H]2[C@@H]3CC=C4C[C@@H](O)CC[C@]4(C)[C@H]3CC[C@]12C	< 6.06	–	–
CCCCCCCC[C@](C)(O)[C@H]1CC[C@H]2[C@@H]3CC=C4C[C@@H](O)CC[C@]4(C)[C@H]3CC[C@@]21C	< 4.70	< 5.00	–
CC(C)C[C@](C)(O)[C@H]1CC[C@H]2[C@@H]3CC=C4C[C@@H](O)CC[C@]4(C)[C@H]3CC[C@@]21C	< 4.52	< 4.70	–
CC[C@](C)(O)[C@H]1CC[C@H]2[C@@H]3CC=C4C[C@@H](O)CC[C@]4(C)[C@H]3CC[C@@]21C	< 4.52	< 4.52	–
CC1(C)C[C@H]2[C@@H]3CC=C4C[C@@H](OC5CCCCO5)CC[C@]4(C)[C@H]3CC[C@]2(C)[C@H]1O (stereo partly drawn)	–	–	pKi [4]: 7.66; pKi [5]: 7.01
C[C@]12CC[C@H](O)CC1=CC[C@@H]1[C@@H]2CC[C@]2(C)C([C@H](O)CO)=CC[C@@H]12	< 4.30	< 4.30	–
CC(C)CC[C@](C)(O)[C@H]1CC[C@H]2[C@@H]3CC=C4C[C@@H](O)CC[C@]4(C)[C@H]3CC[C@@]21C	< 5.70	5.89	–
CC(C)CCN[C@@H](C)[C@H]1CC[C@H]2[C@@H]3CC=C4C[C@@H](O)CC[C@]4(C)[C@H]3CC[C@]12C	< 4.00	< 4.00	–
CCCC[C@](C)(O)[C@H]1CC[C@H]2[C@@H]3CC=C4C[C@@H](O)CC[C@]4(C)[C@H]3CC[C@@]21C	< 4.52	< 5.00	–
CCCCC[C@](C)(O)[C@H]1CC[C@H]2[C@@H]3CC=C4C[C@@H](O)CC[C@]4(C)[C@H]3CC[C@@]21C	6.11	6.22	–
C[C@@H]1[C@@]2(CC[C@](C)(O)CO2)O[C@H]2C=C3[C@@H]4[C@@H](O)C[C@H]5Cc6nc7c(nc6C[C@]5(C)[C@H]4C[C@@H](O)[C@]3(C)[C@]21O)C[C@@H]1CC[C@H]2[C@H]3C[C@@H]4O[C@@]5(CCC(C)(C)O5)[C@@H](C)[C@@H]4[C@@]3(C)[C@H](O)C[C@@H]2[C@@]1(C)C7	–	–	pKi [4]: 7.55; pKi [5]: < 6.44
C[C@H](CCCC(C)(C)O)[C@H]1CC[C@H]2[C@@H]3CCC4C[C@@H](O)CC[C@]4(C)[C@H]3CC[C@]12C (stereo partly drawn)	7.29	–	–
CC(C)C[C@@](C)(O)[C@H]1CC[C@H]2[C@@H]3CC=C4C[C@@H](O)CC[C@]4(C)[C@H]3CC[C@@]21C	< 4.30	< 4.30	–
CCCCCCCC[C@@](C)(O)[C@H]1CC[C@H]2[C@@H]3CC=C4C[C@@H](O)CC[C@]4(C)[C@H]3CC[C@@]21C	< 4.00	< 4.00	–
CC(C)CC[C@@H](O)[C@](C)(O)[C@H]1CC[C@H]2[C@@H]3CC=C4C[C@@H](O)CC[C@]4(C)[C@H]3CC[C@]12C	< 4.82	< 4.52	–
CC(C)CC[C@@H](O)[C@@H](C)[C@H]1CC[C@H]2[C@@H]3CC=C4C[C@@H](O)CC[C@]4(C)[C@H]3CC[C@]12C [22(R)-HYDROXYCHOLESTEROL]	< 4.30	–	–
C[C@@H]1[C@]2(O[C@H]3C=C4[C@@H]5CC[C@H]6Cc7nc8c(nc7C[C@]6(C)[C@H]5C[C@@H](O)[C@]4(C)[C@]31O)C[C@@H]1CC[C@H]3C4=CC[C@@H]5[C@H](C)[C@@]6(OC[C@]45C(=O)C[C@@H]3[C@@]1(C)C8)OC(C)(C)C[C@H]6O)O[C@](C)(CO)C[C@H]2O [CEPHALOSTATIN 1]	–	–	pKi ([4]; hek293t): 7.41; pKi ([5]; hek293t): 7.11
C[C@@H]1CC[C@@]2(OC1)O[C@H]1C[C@H]3[C@@H]4CC=C5C[C@@H](O)CC[C@]5(C)[C@H]4CC[C@]3(C)[C@H]1[C@@H]2C [DISOGENIN]	–	< 4.00	–
CC(C)(O)[C@H]1O[C@H]2CC[C@@]3(C)[C@@](O)(CC[C@H]4Cc5c([nH]c6ccccc56)[C@@]43C)C2=CC1=O [PAXILLINE]	< 4.52	< 4.30	–
CC(C)=CCC/C(C)=C/Cc1c(O)cc(/C=C/c2cc(O)c3c(c2)C[C@@H]2C(C)(C)[C@H](O)[C@H](O)C[C@@]2(C)O3)cc1O [SCHWEINFURTHIN A]	–	–	pKi ([4]; hek293t): 7.17; pKi ([5]; hek293t): 5.59
